Results on 15 compounds are retold here after US10112906B2, “1-aryl-3-alkylpyrazole insecticides” (E. I. DU PONT DE NEMOURS AND COMPANY, priority 2013, dated 2018).

Experiment [1] relates to diamondback moth (Plutella xylostella (L.)). In words: Test A: control of diamondback moth, foliar spray on mustard plant. In kind it is in vivo. Particulars: neonate larvae, assessed after 6 days. As for the experimental part:
(§1) Test compounds were formulated using a solution containing 10% acetone, 90% water and 300 ppm X-77® Spreader Lo-Foam Formula non-ionic surfactant containing alkylarylpolyoxyethylene, free fatty acids, glycols and isopropanol (Loveland Industries, Inc. Greeley, Colo., USA). The formulated compounds were applied in 1 mL of liquid through a SUJ2 atomizer nozzle with ⅛ JJ custom body (Spraying Systems Co. Wheaton, Ill., USA) positioned 1.27 cm (0.5 inches) above the top of each test unit. Test compounds were sprayed at the rates indicated, and each test was replicated three times.
For evaluating control of diamondback moth (Plutella xylostella (L.)) the test unit consisted of a small open container with a 12-14-day-old mustard plant inside. This was pre-infested with ˜50 neonate larvae that were dispensed into the test unit via corn cob grits using an inoculator. The larvae moved onto the test plant after being dispensed into the test unit.
Test compounds were formulated and sprayed at 250 and/or 50 ppm. After spraying of the formulated test compound, each test unit was allowed to dry for 1 hour and then a black, screened cap was placed on top. The test units were held for 6 days in a growth chamber at 25° C. and 70% relative humidity. Plant feeding damage was then visually assessed based on foliage consumed, and larvae were assessed for mortality.

Experiment [2] relates to fall armyworm (Spodoptera frugiperda (J. E. Smith)). In words: Test B: control of fall armyworm, foliar spray on corn (maize) plant. In kind it is in vivo. The conditions noted are these: 1-day-old larvae, assessed after 6 days. As for the experimental part:
as §1
For evaluating control of fall armyworm (Spodoptera frugiperda (J. E. Smith)) the test unit consisted of a small open container with a 4-5-day-old corn (maize) plant inside. This was pre-infested with 10-15 1-day-old larvae on a piece of insect diet.
Test compounds were formulated and sprayed at 250 and/or 50 ppm. After spraying of the formulated test compound, the test units were maintained in a growth chamber for 6 days at 25° C. and 70% relative humidity. Plant feeding damage was then visually assessed based on foliage consumed, and larvae were assessed for mortality.

“2-[3-cyclohexyl-4-[[4-(trifluoromethyl)-1-piperidinyl]methyl]-1H-pyrazol-1-yl]-4-(trifluoromethyl)pyridine [Compound 23]”: the “control efficacy (40% or less feeding damage and/or 100% mortality)” value in experiment [1] (sprayed at 50 ppm), in experiment [1] (sprayed at 250 ppm), in experiment [2] (sprayed at 50 ppm) and in experiment [2] (sprayed at 250 ppm) was “very good to excellent levels of control efficacy” in each case.

Consider `N#CC1CCN(Cc2cn(-c3ccc(Cl)c(Cl)c3)nc2Cc2ccccc2F)CC1` [Compound 1], for which the “control efficacy (40% or less feeding damage and/or 100% mortality)” value in experiment [1] (sprayed at 50 ppm) is recorded as “very good to excellent levels of control efficacy”.

`N#CC1CCN(Cc2cn(-c3ccc(Cl)c(Cl)c3)nc2Cc2ccc(F)cc2)CC1` [Compound 2]: the “control efficacy (40% or less feeding damage and/or 100% mortality)” value in experiment [1] (sprayed at 50 ppm) was “very good to excellent levels of control efficacy”.

With `N#CC1CCN(Cc2cn(-c3ccc(Cl)cc3)nc2C=CCl)CC1` [Compound 9], the “control efficacy (40% or less feeding damage and/or 100% mortality)” value in experiment [2] (sprayed at 50 ppm) and in experiment [2] (sprayed at 250 ppm) was “very good to excellent levels of control efficacy” throughout.

Consider `N#CC1CCN(Cc2cn(-c3ccc(Cl)c(Cl)c3)nc2C2CC2)CC1` [Compound 12], for which the “control efficacy (40% or less feeding damage and/or 100% mortality)” value in experiment [1] (sprayed at 50 ppm) was “very good to excellent levels of control efficacy”.

With `CC(=O)N[C@H]1CCN(Cc2cn(-c3ccc(Cl)c(Cl)c3)nc2C2CC2)C1` [Compound 13], the “control efficacy (40% or less feeding damage and/or 100% mortality)” value in experiment [1] (sprayed at 50 ppm) is “very good to excellent levels of control efficacy”.

`CCc1nn(-c2ccc(Cl)c(Cl)c2)cc1CN1CCC(C#N)CC1` [Compound 14]: the “control efficacy (40% or less feeding damage and/or 100% mortality)” value in experiment [1] (sprayed at 50 ppm) is reported as “very good to excellent levels of control efficacy”.

Consider `C=Cc1nn(-c2ccc(Cl)c(Cl)c2)cc1CN1CCC(C#N)CC1` [Compound 15], for which, in experiment [1] (sprayed at 50 ppm), the “control efficacy (40% or less feeding damage and/or 100% mortality)” value was “very good to excellent levels of control efficacy”.

Consider `N#CC1CCN(Cc2cn(-c3ccc(Cl)c(Cl)c3)nc2C2CCCCC2)CC1` [Compound 19], for which the “control efficacy (40% or less feeding damage and/or 100% mortality)” value in experiment [2] (sprayed at 50 ppm) and in experiment [2] (sprayed at 250 ppm) was “very good to excellent levels of control efficacy” in each case.

With `O=C(NC1CCN(Cc2cn(-c3ccc(Cl)c(Cl)c3)nc2C2CCCCC2)C1)C1CC1` (centres unmarked) [Compound 20], the “control efficacy (40% or less feeding damage and/or 100% mortality)” value in experiment [1] (sprayed at 250 ppm) and in experiment [2] (sprayed at 250 ppm) was “very good to excellent levels of control efficacy” throughout.

In the case of `Cc1nn(-c2ccc(Cl)c(Cl)c2)cc1CN1CCC(C#N)CC1` [Compound 21], the “control efficacy (40% or less feeding damage and/or 100% mortality)” value in experiment [1] (sprayed at 50 ppm) and in experiment [1] (sprayed at 250 ppm) was “very good to excellent levels of control efficacy” throughout.

With `Cc1nn(-c2ccc(Cl)c(Cl)c2)cc1CN1CCC(NC(=O)C2CC2)C1` (centres unmarked) [Compound 22], the “control efficacy (40% or less feeding damage and/or 100% mortality)” value in experiment [1] (sprayed at 50 ppm) and in experiment [1] (sprayed at 250 ppm) was “very good to excellent levels of control efficacy” throughout.

As to `C[Si](C)(C)C#Cc1nn(-c2ccc(Cl)c(Cl)c2)cc1CN1CCC(C#N)CC1` [Compound 29], the “control efficacy (40% or less feeding damage and/or 100% mortality)” value in experiment [2] (sprayed at 50 ppm) is “very good to excellent levels of control efficacy”.

Regarding `C#Cc1nn(-c2ccc(Cl)c(Cl)c2)cc1CN1CCC(C#N)CC1` [Compound 31], the “control efficacy (40% or less feeding damage and/or 100% mortality)” value in experiment [1] (sprayed at 50 ppm) is recorded as “very good to excellent levels of control efficacy”.

Regarding `N#CC1CCN(Cc2cn(-c3ccc(Cl)c(Cl)c3)nc2C#Cc2ccccc2)CC1` [Compound 32], in experiment [1] (sprayed at 50 ppm), the “control efficacy (40% or less feeding damage and/or 100% mortality)” value is recorded as “very good to excellent levels of control efficacy”.
